# Assay results published in ChEMBL document CHEMBL5728586, “Substituted 6-azabenzimidazole compounds” (2021).
# Target: Mitogen-activated protein kinase kinase kinase kinase 1 (Homo sapiens, UniProt Q92918)
# Experiment: Enzymatic Activity Assay: Recombinant HPK1 kinase domain produced via baculovirus infection of insect cells was obtained from Proteros (Proteros Biostructures #PR-0322) and was pre-activated in the presence of 2 mM ATP (Sigma-Aldrich, cat #GE27-2056-01) and 2 mM magnesium chloride for 16 hours at 4° C. The protein reaction mixture was then loaded to a desalting column (Thermo Fisher Scientific, Cat #89889) to remove excess ATP. HPK1 was eluted with buffer containing 20 mM Tris (2-Amino-2-(hydroxymethyl)propane-1,3-diol) pH 8.0, 150 mM NaCl, 2 mM dithiothreitol and 5% glycerol, and was frozen at −80° C. for later use. HPK1 dual phosphorylation was confirmed by mass spectrometry.Ten nanoliters of test compounds dissolved in DMSO at various concentrations were dispensed into a 384-well ProxiPlate (PerkinElmer #6008289). Five microliters of a solution of recombinant HPK1 diluted in HPK1 kinase assay buffer (50 mM BES [N,N-Bis(2-hydroxyethyl)-2-aminoethanesulfonic acid], pH 7.0; 10 mM magnesium chloride; 0.01% Triton X-100; 1 mM dithiothreitol; 0.01% bovine serum albumin; 0.1 mM sodium orthovanadate) was added to the compound-containing plate and was incubated for 15 minutes at 25° C. Five microliters of a mixture of ATP (Sigma-Aldrich #A6559) and peptide substrate STK S1 (Cisbio #61ST1BLC) diluted in HPK1 kinase assay buffer was then added to start the reaction. […]
# Mitogen-activated protein kinase kinase kinase kinase 1, sequence (Q92918 whole entry, the tested form may be a part): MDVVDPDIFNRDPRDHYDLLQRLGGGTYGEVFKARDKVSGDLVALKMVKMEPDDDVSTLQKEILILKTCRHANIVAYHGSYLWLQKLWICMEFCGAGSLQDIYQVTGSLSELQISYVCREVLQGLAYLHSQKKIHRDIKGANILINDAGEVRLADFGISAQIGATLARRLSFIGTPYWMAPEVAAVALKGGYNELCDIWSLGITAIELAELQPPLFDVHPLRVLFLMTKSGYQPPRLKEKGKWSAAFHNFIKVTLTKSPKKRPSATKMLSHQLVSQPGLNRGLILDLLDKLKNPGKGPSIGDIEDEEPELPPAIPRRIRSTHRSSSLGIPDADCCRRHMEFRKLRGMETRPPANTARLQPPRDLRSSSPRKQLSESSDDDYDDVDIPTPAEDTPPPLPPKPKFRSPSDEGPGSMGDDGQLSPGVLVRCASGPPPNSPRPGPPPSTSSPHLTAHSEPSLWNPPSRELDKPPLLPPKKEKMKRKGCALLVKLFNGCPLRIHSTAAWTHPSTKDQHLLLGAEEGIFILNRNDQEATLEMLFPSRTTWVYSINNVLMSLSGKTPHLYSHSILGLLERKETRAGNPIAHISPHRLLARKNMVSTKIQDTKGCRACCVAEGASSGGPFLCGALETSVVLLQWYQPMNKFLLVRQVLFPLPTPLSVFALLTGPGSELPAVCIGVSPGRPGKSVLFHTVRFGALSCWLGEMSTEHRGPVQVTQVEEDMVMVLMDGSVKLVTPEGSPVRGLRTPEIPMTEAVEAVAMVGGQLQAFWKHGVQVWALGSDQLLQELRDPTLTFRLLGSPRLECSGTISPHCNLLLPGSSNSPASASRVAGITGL
row,SMILES,IC50 [nM]
1,CC(C)n1cnc2cc(-c3ccc4c(c3)N([C@H]3C[C@@H](N5CCC(C)(C)C5)C3)C(=O)C43CCN(C(=O)[C@H]4CC[C@@H](C)O4)CC3)nc(Nc3ccncc3F)c21,0.2
2,CC(C)n1cnc2cc(-c3ccc4c(c3)N([C@H]3C[C@@H](N5CCC(C)(C)C5)C3)C(=O)C43CCN(C(=O)[C@@H]4OCC[C@@H]4C)CC3)nc(Nc3ccncc3F)c21,0.3
